Experiment [1] deals with 72 kDa type IV collagenase (Homo sapiens, UniProt P08253). The experiment can be described thus: Inhibitory activity against MMP2.
The target in experiment [2] is T1, Stromelysin-1 (Homo sapiens, UniProt P08254). The experiment can be described thus: Inhibitory activity against MMP3.
Target sequence in this assay (P08254 whole entry): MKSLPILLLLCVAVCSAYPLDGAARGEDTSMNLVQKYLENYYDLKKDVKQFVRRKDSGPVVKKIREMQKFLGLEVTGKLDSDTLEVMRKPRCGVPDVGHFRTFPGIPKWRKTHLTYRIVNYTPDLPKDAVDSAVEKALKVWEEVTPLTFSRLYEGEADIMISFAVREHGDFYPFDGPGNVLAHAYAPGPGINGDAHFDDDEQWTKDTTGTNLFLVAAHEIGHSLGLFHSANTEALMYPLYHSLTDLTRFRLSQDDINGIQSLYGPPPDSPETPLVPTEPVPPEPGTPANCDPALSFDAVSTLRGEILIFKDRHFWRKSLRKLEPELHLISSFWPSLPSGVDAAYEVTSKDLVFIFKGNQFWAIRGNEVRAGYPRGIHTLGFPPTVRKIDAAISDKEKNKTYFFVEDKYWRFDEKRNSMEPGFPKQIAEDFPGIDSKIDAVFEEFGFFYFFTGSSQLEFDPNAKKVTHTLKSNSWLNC
For experiment [3], the target named is T1, Stromelysin-1. The experiment can be described thus: Inhibitory activity against MMP3 at 0.1 mM.
Target sequence in this assay (P08254 100-477 limits assumed): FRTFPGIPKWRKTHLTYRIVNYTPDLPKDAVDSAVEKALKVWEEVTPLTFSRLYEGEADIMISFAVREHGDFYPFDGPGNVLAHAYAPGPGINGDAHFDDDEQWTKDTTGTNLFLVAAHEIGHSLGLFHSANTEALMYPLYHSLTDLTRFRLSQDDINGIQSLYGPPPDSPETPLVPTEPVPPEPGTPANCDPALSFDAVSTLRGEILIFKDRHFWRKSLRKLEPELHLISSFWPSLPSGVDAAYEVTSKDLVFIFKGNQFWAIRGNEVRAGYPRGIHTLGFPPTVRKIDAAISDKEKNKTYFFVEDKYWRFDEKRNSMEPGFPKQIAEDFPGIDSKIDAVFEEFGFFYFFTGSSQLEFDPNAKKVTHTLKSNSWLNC

Structures are written as SMILES. Bounds are passed on as bounds.

72 kDa type IV collagenase, sequence (P08253 whole entry): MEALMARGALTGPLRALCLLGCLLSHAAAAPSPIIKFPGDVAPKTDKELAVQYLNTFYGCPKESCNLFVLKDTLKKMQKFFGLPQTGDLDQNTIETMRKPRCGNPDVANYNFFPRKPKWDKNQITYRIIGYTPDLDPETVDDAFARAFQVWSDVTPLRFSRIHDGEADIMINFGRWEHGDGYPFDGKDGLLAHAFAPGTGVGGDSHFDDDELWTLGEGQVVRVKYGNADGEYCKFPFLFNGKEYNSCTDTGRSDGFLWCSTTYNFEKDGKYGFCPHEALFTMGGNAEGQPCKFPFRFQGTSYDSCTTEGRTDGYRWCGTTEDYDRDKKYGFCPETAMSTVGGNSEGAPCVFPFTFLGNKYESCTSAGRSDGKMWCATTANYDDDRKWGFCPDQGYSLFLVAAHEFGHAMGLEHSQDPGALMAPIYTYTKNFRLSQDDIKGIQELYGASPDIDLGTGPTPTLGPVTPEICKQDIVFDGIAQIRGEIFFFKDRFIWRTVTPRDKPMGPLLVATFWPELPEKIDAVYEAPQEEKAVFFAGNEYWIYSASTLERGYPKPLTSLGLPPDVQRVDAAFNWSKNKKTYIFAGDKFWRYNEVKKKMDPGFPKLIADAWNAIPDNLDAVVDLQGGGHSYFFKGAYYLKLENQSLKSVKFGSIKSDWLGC

As for `CC(C)[C@@H](NS(=O)(=O)c1ccc(-c2ccc(Br)cc2)cc1)C(=O)NO`, the IC50 (usually the point on the concentration scale where inhibition reaches its midpoint) in experiment [1] stood at 3 nM; against Stromelysin-1 [2] it was 8 nM.
For `COc1ccc(-c2ccc(S(=O)(=O)N[C@H](C(C)C)P(=O)(O)O)cc2)cc1`, the affinity in experiment [1] corresponds to a Ki of 1200 nM. Moreover, the inhibition (usually the percentage by which the read-out fell short of the control) against Stromelysin-1 [3] was below 15%.
Turning to `COc1ccc(-c2ccc(S(=O)(=O)N[C@@H](C(C)C)P(=O)(O)O)cc2)cc1`, the Ki (in general, the equilibrium dissociation constant of an inhibitor or competing ligand from its target) in experiment [1] was 5 nM; on Stromelysin-1 [2] it was 40 nM.

For the origin of these results see ChEMBL document CHEMBL1148622, “Structural insight into the stereoselective inhibition of MMP-8 by enantiomeric sulfonamide phosphonates” (J Med Chem, 2006).
